From patent US5863905A, “2',5'-phosphorothioate/phosphodiester oligoadenylates and anti-viral uses thereof” (Temple University-Of The Commonwealth System of Higher …, priority 1997, dated 1999)
Entries after “also recorded” stand apart in the source; their conditions may differ.

What was measured:
[1] = test system: serum phosphodiesterases; assay: Stability of 2-5A core derivatives to serum phosphodiesterase; assay type: in vitro ADME, fetal calf; details: 300 μM, 37° C.; for Hydrolysis Products: 10% fetal calf serum, 6 h, identified by HPLC; for % Hydrolysis: RPMI-1640 + 10% fetal calf serum, 6 h (A2, A3: 20 min)
Description: The stability of authentic 2-5A and phosphorothioate/phosphodiester trimer and tetramer core derivatives (300 μM) was determined by incubation in 200 μL of RPMI-1640 medium supplemented with 10% fetal calf serum in 5% CO2 -in-air at 37° C. Aliquots (30 μL) were removed at time zero and 6 hours. The hydrolysis products were identified by HPLC as described in Kariko et al. , Biochemistry 26: 7127-7135 (1987).
No hydrolysis of the phosphorothioate/phosphodiester trimer core derivatives was observed. However, the phosphorothioate/phosphodiester tetramer core derivatives were hydrolyzed from the 5'- or 2',3'-terminus, depending on the location of the phosphorothioate-substituted internucleotide linkage.

[2] = test system: RNase L; assay: rRNA cleavage assay in L929 cell extracts (activation of RNase L); assay type: biochemical; details: 1 h at 30° C., > = no activation up to this concentration
Description: FIG. 2A represents the results of a ribosomal RNA cleavage assay with 2',5'-phosphorothioate/phosphodiester trimer core 2-5A derivatives. The procedure was performed according to the method of Kariko et al., Biochemistry 26: 7127-7135 (1987). 2-5A oligomer (phosphodiester internucleotide linkage) is also included for comparison. L929 cell extracts were incubated in the absence (lane 1) or presence of p3 A3 at 10^-8 M (lane 2), ARp *ApA at 10^-6 M (lane 3), ASp *ApA at 10^-6 M (lane 4), ApARp *A at 10^-6 M (lane 5), ApASp *A at 10^-6 M (lane 6) or A3 at 10^-6 M (lane 7). The positions of 28S and 18S rRNA are shown; the arrows indicate the positions of the well-characterized specific cleavage products (SCP) of RNase L.
FIG. 2B represents the results of a ribosomal RNA cleavage assay performed according to the method of FIG. 2A with 2',5'-phosphorothioate/phosphodiester trimer 5'-monophosphate derivatives. L929 cell extracts were incubated in the absence (lane 1) or presence of p3 A3 at 2×10^-9 M (lane 2), pA3 at 10^-6 M (lane 3), pARp *ApA at 10^-7 M (lane 4), pASp *ApA at 10^-7 M (lane 5), pApARp *A at 2×10^-9 M (Lane 6), pApASp *A at 10^-7 M (lane 7).
FIG. 3A represents the results of a ribosomal RNA cleavage assay performed according to the method of FIG. 2A with 2',5'-phosphorothioate/phosphodiester tetramer core 2-5A derivatives. 2-5A oligomer (phosphodiester internucleotide linkage) is also included for comparison. L929 cell extracts were incubated in the absence (lane 1) or presence of p3 A4 at 10^-8 M (lane 2), A4 at 10^-5 M (lane 3), ARp *ApApA at 10^-5 M (lane 4), ASp *ApApA at 10^-5 M (lane 5), ApARp *ApA at 10^-5 M (lane 6), ApASp *ApA at 10^-5 M (lane 7), ApApARp *A at 10^-5 M (lane 8) or ApApASp *A at 10^-5 M (lane 9).
FIG. 3B represents the results of a ribosomal RNA cleavage assay performed according to the method of FIG. 2A with 2',5'-phosphorothioate/phosphodiester tetramer 5'-monophosphate derivatives. L929 cell extracts were incubated in the absence (lane 1) or presence of p3 A4 at 10^-8 M (lane 2), pA4 at 10^-6 M (lane 3), pARp *ApApA at 10^-6 M (lane 4), pASp *ApApA at 10^-6 M (lane 5), pApARp *ApA at 10^-8 M (lane 6), pApASp *ApA at 10^-5 M (lane 7), pApApARp *A at 10^-7 M (lane 8) or pApApASp *A at 10^-7 M (lane 9).
Activation of RNase L by the phosphorothioate/phosphodiester trimer and tetramer 2-5A derivatives was also measured in a rRNA cleavage assay using L929 cell extracts according to the method of Kariko et al. (1987), supra, in which extracts of L929 cells were incubated for 1 h at 30° C. in the presence or absence of 2-5A or 2-5A derivative. […] Authentic p3 A3 was active at 1×10^-8 M (FIG. 2A, lane 2). The corresponding 5'-monophosphates, pARp *ApA, pASp *ApA and pApARp *A, activated at 1×10^-7 M, 1×10^-7 M, and 2×10^-9 M, respectively (FIG. 2B, lanes 4-6), as compared with pA3 which was active at 1×10^-6 M (lane 3).

[3] = test system: HIV-1 strain IIIB; assay: Inhibition of HIV-1-induced syncytia formation (infected centers assay); assay type: cell-based; details: for inhibition of HIV-1-induced syncytia formation: 3×10^-4 M, PBL infected with HIV-1 IIIB, Sup T1 cells, read at 72 h; for inhibition of syncytia formation (in words): 3×10^-4 M (adenosine 9×10^-4 M)
From the text: FIG. 5A represents the results of an assay performed according to the method of Henderson et al., Virology 182: 186-198 (1991), indicating the inhibition of HIV-1 (IIIB)-induced syncytia formation by adenosine, 2-5A trimer or tetramer core or 2',5'- phosphorothioate/phosphodiester trimer derivatives: ARp *ApA, ASp *ApA, ApARp *A, ApASp *A, ARp *ApApA, ASp *ApApA, ApARp *ApA, ApASp *ApA, ApApARp *A, ApApASp *A.
FIG. 5B is the results of an assay performed according to the method of FIG. 5A with a 2',5'-phosphorothioate/phosphodiester tetramer derivative of 2-5A core.
The infected centers assay as described by Henderson et al., Virology 182: 186-198 (1991), was used to measure the ability of the phosphorothioate/phosphodiester derivatives of 2-5A trimer and tetramer cores to inhibit HIV-1 induced syncytia formation, an indicator of HIV-1 replication in T cells. Freshly isolated peripheral blood lymphocytes (PBL) were treated with 2-5A or derivatives for 2 h and infected with HIV-1 strain IIIB at a m.o.i. of approximately 0.1. The infected PEL were maintained in RPMI-1640 medium supplemented with 10% (v/v) heat-inactivated fetal calf serum at 37° C. in a humidified 5% CO2 in air atmosphere. After 48 h, the cells were washed twice in Hank's balaned salt solution, serially diluted and seeded into multiple wells of a 96-well microtiter plate. Immediately, 2×10^5 exponentially growing Sup T1 cells were added to each well; Sup T1 cells readily form a syncytium with a cell which is productively infected with HIV-1. The wells were examined daily for the presence of syncytia, using a tissue culture microscope. The first signs of syncytia formation can be seen in 12 h, with some complete syncytia developing by 24 h. Final results were read at 72 h. Each syncytium was counted as a single infected cell. The number of syncytia per seeded cell is determined and expressed as an infected center per infected cell. In the control (no 2-5A derivative added), 100% syncytia formation was equivalent to 12±3 syncytia per 200 HIV-1 infected cells.

[4] = test system: HIV-1 reverse transcriptase; assay: HIV-1 reverse transcriptase activity in culture supernatant of infected Sup T1 cells; assay type: cell-based; details: 300 μM (adenosine and adenine 900 μM), 6 h pre-treatment, 96 h post-infection; average of triplicates
Description: Sup T1 cells were treated with 2-5A or a phosphorothioate/phosphodiester derivative at 300 μM for 6 hours and then infected with HIV-1 at a multiplicity of infection (M.O.I) of approximately 0.1. Adenosine and adenine were tested at 900 μM. At 96 hours post-infection, culture supernatant was removed and HIV-1 RT activity was assayed in triplicate as described by Henderson et al., Virology 182:186-198 (1991). Briefly in this method, 25 μl of culture supernatant was added to a 50 μl cocktail containing 50 mM Tris (pH 8.0), 20 mM dithiothreitol, 10 mM MgCl2, 60 mM NaCl, 0.05 Nonidet p-40, 5 μg/ml oligodeoxythymidylic acid, 10 μg/ml polyriboadenylic acid, 10 μM deoxythymidine triphosphate and 1 mCi [^32 p]thymidine 5'-triphosphate. The mixture was incubated at 37° C. for 2 hours. Fifty microliters of the cocktail were then spotted onto diethylaminoethyl (DEAE) paper, dried, washed with 2× SSC solution (three times for 10 minutes each time) and 95% ethanol (two times for 5 minutes each time), dried and exposed to radiographic film for 18 to 24 hours at -80° C. The filters were cut and final quantitation was determined by scintillation spectrometry.

[5] = test system: 2-5A synthetase/RNase L pathway; HHV-6; details: CFS patients, cited from earlier work

Substance | Hydrolysis Products [1] | % Hydrolysis [1] [%] | concentration at which RNase L is activated to cleave rRNA to SCP [2] [nM] | inhibition of HIV-1-induced syncytia formation [3] [%] | Percent Inhibition of HIV-1 Reverse Transcriptase [4] [%] | inhibition of syncytia formation (in words) [3] | HHV-6 activity following therapy ([5]; p<0.01) | mean basal latent 2-5A synthetase level in PBMC extracts following therapy ([5]; controls 2035±325, P<0.001) | 2-5A synthetase/RNase L pathway following therapy ([5]; in temporal association with clinical and neuropsychological improvement)
Adenylyl-(2',5')-(PR) -P-thioadenylyl-(2',5')-adenylyl-(2',5')-adenosine [ApARp *ApA] | inosine, hypoxanthine; also recorded: ARp *ApA | 50 | 10000 | 26 | 52 |  |  |  | 
Adenylyl-(2',5')-(PR)-P-thioadenylyl-(2',5')-adenosine [ApARp *A] | not hydrolyzed | 0 | 1000 | 100 | 31 | most efficient inhibitors of HIV-1 induced syncytia formation |  |  | 
Adenylyl-(2',5')-(PS)-P-thioadenylyl-(2',5')-adenosine [ApASp *A] | not hydrolyzed | 0 | > 1000 | 78 | 78 | most efficient inhibitors of HIV-1 induced syncytia formation |  |  | 
poly (I)-poly (C12 U) |  |  |  |  |  |  | significant decrease in HHV-6 activity | 610±220 picomoles 2-5A/mg protein/hour | down regulation of the 2-5A synthetase/RNase L pathway
